Assay results published in patent US20070269513A1, “Liver selective drug therapy” (priority 1999, published 2007).
“And” between values parts separate entries of the source, which are not always exact repeats. Equal entries are not always repeated.

Key:
[1] = Kinetic study of slow-release propranolol granules given by mouth to anaesthetised dogs; portal venous and systemic blood concentration; type: in vivo; details: for Propranolol Concentration, Systemic: systemic blood
Excerpt: Experiments were undertaken in four dogs under general anaesthesia induced with halothane and then maintained with ketamine and xylazine. Cardiovascular status was monitored by measurement of heart rate and blood pressure and by measurement of arterial blood gases. Ventilation was assisted to maintain blood gases within physiological limits. A catheter was placed in the femoral artery to permit sampling of arterial blood. After laparotomy, a catheter was placed in a mesenteric vein and advanced to the portal vein to permit sampling of portal venous blood samples.
Propranolol was administered by mouth on the evening before, and then again one hour before the study as a dose of 40 mg in granules taken from a 160 mg slow release formulation of propranolol (Cardinol; Pacific Pharmaceuticals New Zealand). […] The animals were sacrificed at the end of he experiment.
The concentration in systemic blood was generally below the level of detection (<5 ug/ml).

[2] = review as at 18 Nov. 2004; cited from earlier work
[3] = FDA MEDWATCH, in words; cited from earlier work
[4] = in vivo; cited from earlier work

Compound: CC(C)NCC(O)COc1cccc2ccccc12 (centres unmarked) [Propranolol, propranolol]
- concentration at 60 min ([1]; dog, portal venous whole blood, oral, 40 mg, portal vein, 60 min, individual dogs 1-4): 5800 ng/mL
- concentration in systemic blood ([1]; generally below the level of detection, summary of the table): < 5000 ng/mL
- Propranolol Concentration, Portal Vein ([1]; portal vein, 30 min, individual dogs 1-4): 11.5 µg/mL and 11.8 µg/mL and 13 µg/mL and 2 µg/mL
- Propranolol Concentration, Portal Vein ([1]; portal vein, 60 min, individual dogs 1-4): 10.9 µg/mL and 10 µg/mL and 6 µg/mL
- Propranolol Concentration, Portal Vein ([1]; portal vein, 90 min, individual dogs 1-4): 22 µg/mL and 14.4 µg/mL and 10 µg/mL and 5 µg/mL
- Propranolol Concentration, Portal Vein ([1]; portal vein, 120 min, individual dogs 1-4): <5 µg/mL and 13 µg/mL and 4 µg/mL
- Propranolol Concentration, Portal Vein ([1]; portal vein, Baseline, 40 mg slow-release granules by mouth evening before and one hour before study, individual dogs 1-4): <5 µg/mL and 28.8 µg/mL and 21 µg/mL and 36 µg/mL
- portal versus systemic concentration (liver selectivity) ([1]; small series in dogs, conclusion in words): concentration gradients between portal and systemic vessels
- Propranolol Concentration, Systemic ([1]; 30 min, individual dogs 1-4): <5 ug/ml (2×) and 2 ug/ml and <2 ug/ml
- Propranolol Concentration, Systemic ([1]; 60 min, individual dogs 1-4): 6.2 µg/mL and <5 µg/mL and 2 µg/mL and <2 µg/mL
- Propranolol Concentration, Systemic ([1]; 90 min, individual dogs 1-4): 5.8 µg/mL and <5 µg/mL and 2 µg/mL and <2 µg/mL
- Propranolol Concentration, Systemic ([1]; 120 min, individual dogs 1-4): <5 µg/mL and 2 µg/mL and <2 µg/mL
- Propranolol Concentration, Systemic ([1]; Baseline, individual dogs 1-4): <5 ug/ml (2×) and 3 ug/ml and <2 ug/ml

Compound: CC[C@H](C)C(=O)O[C@H]1C[C@H](O)C=C2C=C[C@H](C)[C@H](CC[C@@H](O)C[C@@H](O)CC(=O)O)[C@H]21 [Pravastatin]
- transient global amnesia cases within Australia [2]: 3 cases

Compound: COCc1c(C(C)C)nc(C(C)C)c(/C=C/[C@@H](O)C[C@@H](O)CC(=O)O)c1-c1ccc(F)cc1 [Cerivastatin, cerivastatin]
- implication in statin-associated rhabdomyolysis reports [3]: most commonly implicated statin

Compound: CCC(C)(C)C(=O)O[C@H]1C[C@@H](C)C=C2C=C[C@H](C)[C@H](CC[C@@H]3C[C@@H](O)CC(=O)O3)[C@H]21 [simvastatin]
- half-life [4]: 42 to 240 min

Compound: CC(C)c1c(C(=O)Nc2ccccc2)c(-c2ccccc2)c(-c2ccc(F)cc2)n1CC[C@@H](O)C[C@@H](O)CC(=O)O [Atorvastatin]
- transient global amnesia cases within Australia [2]: 7 cases
